Experimental data as given in US20120059037A1, “SUBSTITUTED PYRIDINE DERIVATIVES AND THEIR MEDICAL USE” (NEUROSEARCH A/S, priority 2009, published 2012).

Target: T1, human Kv7.2+3 (Homo sapiens, UniProt O43525+O43526)
T1 construct: expressed in transfected cells; host or cells: HEK293
Test: FLIPR-based characterization of Kv7.2+3 modulators (thallium influx)
Assay type: cell-based
Conditions: HEK293 cells over-expressing human Kv7.2+3; for EC50: Tl+ influx, BTC-AM, FLIPR, relative to retigabine control responses; for Efficacy: maximal response relative to the reference (retigabine) response
Procedure: This experiment determines the ability of a test compound to modulate the activity of Kv7.2+3 channels heterologously expressed in human HEK293 cells. The ability is determined relative to retigabine. The activity is determined using a standard thallium (I) sensitive assay, e.g. using a fluorometric method in a Fluorescent Image Plate Reader (FLIPR) as described below in more detail.
Full concentration/response curves are generated and EC50 values are calculated based on max values. EC50 values (Effective Concentration) represent the concentration of the test substance, at which 50% of the channel activity is obtained when compared to retigabine control responses. Maximal response determined relative to the reference (retigabine) response is calculated.
Human HEK293 cells over-expressing human Kv7.2+3 are grown in culture medium (DMEM supplemented with 10% foetal bovine serum), in polystyrene culture flasks ([…]) in a humidified atmosphere of 5% CO2 in air, at 37° C. Cell confluence should be 80-90% on day of plating. Cells are rinsed with 4 ml of PBS (phosphate buffered saline) and incubated 2 min with 1 ml of Trypsin-EDTA. After addition of 25 ml of culture medium cells are re-suspended by trituration with a 25 ml pipette.
The cells are seeded at a density of ˜3×10^6 cells/ml (25 μl/well) in black-walled, clear bottom, 384-well plates pre-treated with 0.01 g/l poly-D-lysin (20 μl/well for ≧30 min). Plated cells were allowed to proliferate for 24 h before loading with dye.
BTC-AM (50 mg, Invitrogen) is added 25.5 μl DMSO. The BTC-AM stock solution (2 mM) is diluted to a final concentration of 2 μM in Cl^− free assay buffer (in mM: 140 Na^+-gluconate, 2.5 K^+-gluconate, 6 Ca2^+-gluconate, 1 Mg^2+ gluconate, 5 glucose, 10 HEPES, pH 7.3) containing 2 μM ouabain, 2 mM amaranth and 1 mM tartrazine.
The culture medium is aspirated from the wells, the cells are washed thrice in Cl^− free assay buffer, and 25 μl of the BTC-AM loading solution is added to each well. The cells are incubated at 37° C. for 60 min.
After the loading period, the Tl^+-sensitive BTC fluorescence signal is measured over time using a FLIPR.
• Temperature: Room temp. • First addition: 12 μl test or control compound after 15 sec at a rate of 30 μl/sec and starting height of 20 μl • Second addition: 12 μl stimulus buffer (Cl^− free assay buffer supplemented with 1 mM Tl2SO4, 5 mM K2SO4 as well as the quenchers amaranth (2 mM) and tartrazine (1 mM)) is added after an additional 3 minutes at a rate of 30 μl/sec and starting height of 30 μl • Reading intervals: First sequence—3 sec×5, 2 sec×24 and 5 sec×25 • Second sequence—1 sec×5, 2 sec×24 and 5 sec×36 Addition plates (compound plate and stimulus plate) are placed in positions 2 and 3, respectively. Cell plates are placed in position 1 and run using the “KCNQ (two additions)” program. FLIPR will then take the appropriate measurements in accordance with the interval settings above. Fluorescence obtained after stimulation is corrected for the mean basal fluorescence (in Cl^− free assay buffer).
Full concentration/response curves are generated and EC50 values (“Effective Concentration”; the concentration at which 50% of the channel activity is obtained when compared to retigabine control responses) are calculated based on peak values. Maximal response determined relative to the reference (retigabine) response is calculated.

Row | EC50 [nM] | Efficacy [%] | SMILES
1 | 66 | 100 | O=C(Cc1cc(F)cc(F)c1)Nc1ccc(NCc2ccc(Cl)nc2)nc1N1CCCC1 [Compound 1.1, N-{6-[(6-Chloro-pyridin-3-ylmethyl)-amino]-2-pyrrolidin-1-yl-pyridin-3-yl}-2-(3,5-difluoro-phenyl)-acetamide]
2 | 20 | 108 | O=C(Cc1cc(F)cc(F)c1)Nc1ccc(NCc2cccnc2)nc1N1CCCC1 [Compound 1.2, 2-(3,5-Difluoro-phenyl)-N-{6-[(pyridin-3-ylmethyl)-amino]-2-pyrrolidin-1-yl-pyridin-3-yl}-acetamide]

Row | SMILES | EC50 [nM] | Efficacy [%]
3 | CC(C)(C)CC(=O)Nc1ccc(NCc2ccc(Cl)nc2)nc1N1CCCC1 [Compound 1.3, N-{6-[(6-Chloro-pyridin-3-ylmethyl)-amino]-2-pyrrolidin-1-yl-pyridin-3-yl}-3,3-dimethyl-butyramide] | 66 | 100
